# Legend:
# Type in all cases: cell-based
# SK-OV3 cell line = assay: Cytotoxicity / growth inhibition, 96-well CellTiter-Glo assay, SK-OV3; conditions: for GI50: Homo sapiens, SK-OV-3, 72 h, SK-OV3, ovarian cancer cell line, 3-day assay, read-out: GI50, concentration that inhibits 50% cell growth
# Description: (§1) Cytotoxicity. The growth-inhibition activities of both purified UMAF (also referred to as UMAF in this example) optical enantiomers were studied in a standard 96-well cell-based assay using representative cell lines from prostate, ovarian, and lung cancers. The concentrations that cause a 50% inhibition of cell growth (GI50) were determined using a luminescent vital assay reagent (CellTiter-Glo®, Promega Corporation). The growth inhibition curves as a function of UMAF concentration are shown from a representative assay. […] The GI50 concentrations of the two forms for the six cell lines are shown below.
# HCC827 cell line = assay: Cytotoxicity / growth inhibition, 96-well CellTiter-Glo assay, HCC827; conditions: Homo sapiens, 72 h; HCC827, lung cancer cell line, 3-day assay; read-out: GI50, concentration that inhibits 50% cell growth
# Description: as §1
# H1975 cell line = assay: Cytotoxicity / growth inhibition, 96-well CellTiter-Glo assay, H1975; conditions: for GI50: Homo sapiens, NCI-H1975, 72 h, H1975, lung cancer cell line, 3-day assay, read-out: GI50, concentration that inhibits 50% cell growth
# Description: as §1
# DU145 cell line = assay: Cytotoxicity / growth inhibition, 96-well CellTiter-Glo assay, DU145; conditions: for GI50: Homo sapiens, DU-145, 72 h, DU145, prostate cancer cell line, 3-day assay, read-out: GI50, concentration that inhibits 50% cell growth
# Description: as §1
# OVCAR-3 cell line = assay: Cytotoxicity / growth inhibition, 96-well CellTiter-Glo assay, OVCAR-3; conditions: for GI50: Homo sapiens, 72 h, OVCAR-3, ovarian cancer cell line, 3-day assay, read-out: GI50, concentration that inhibits 50% cell growth
# Description: as §1
# PC3 cell line = assay: Cytotoxicity / growth inhibition, 96-well CellTiter-Glo assay, PC3; conditions: Homo sapiens, PC-3, 72 h; PC3, prostate cancer cell line, 3-day assay; read-out: GI50, concentration that inhibits 50% cell growth
# Description: as §1
Compound,GI50 (SK-OV3 cell line) [nM],"toxicity compared between the two enantiomers (growth inhibition curves) (SK-OV3 cell line; SK-OV3, FIG. 7)",GI50 (HCC827 cell line) [nM],"toxicity compared between the two enantiomers (growth inhibition curves) (H1975 cell line; H1975, FIG. 9)",GI50 (H1975 cell line) [nM],"toxicity compared between the two enantiomers (growth inhibition curves) (DU145 cell line; DU145, FIG. 4)",GI50 (DU145 cell line) [nM],GI50 (OVCAR-3 cell line) [nM],"toxicity compared between the two enantiomers (growth inhibition curves) (OVCAR-3 cell line; OVCAR3, FIG. 6)",GI50 (PC3 cell line) [nM]
"CC1=C(CN(O)C(N)=O)C2=C(C)C3(CC3)[C@](C)(O)C(=O)C2=C1 [(+)-UMAF, (+)-hydroxyureamethylacylfulvene]",554,more toxic,897,more toxic,287,more toxic,34.8,254,more toxic,1120
"CC1=C(CN(O)C(N)=O)C2=C(C)C3(CC3)[C@@](C)(O)C(=O)C2=C1 [(−)-UMAF, (−)-hydroxyureamethylacylfulvene]",2400,,1640,,6320,,506,1820,,824
